Test results reported in paper PMC9851200, “Multiparameter phenotypic screening for endogenous TFEB and TFE3 translocation identifies novel chemical series modulating lysosome function” (Autophagy, 2022).

Experiments:
Assay type in all cases: binding
[1] = target: T1, kinases (KINOMEscan panel) (Homo sapiens, UniProt O14920)
T1 sequence (O14920 1-756): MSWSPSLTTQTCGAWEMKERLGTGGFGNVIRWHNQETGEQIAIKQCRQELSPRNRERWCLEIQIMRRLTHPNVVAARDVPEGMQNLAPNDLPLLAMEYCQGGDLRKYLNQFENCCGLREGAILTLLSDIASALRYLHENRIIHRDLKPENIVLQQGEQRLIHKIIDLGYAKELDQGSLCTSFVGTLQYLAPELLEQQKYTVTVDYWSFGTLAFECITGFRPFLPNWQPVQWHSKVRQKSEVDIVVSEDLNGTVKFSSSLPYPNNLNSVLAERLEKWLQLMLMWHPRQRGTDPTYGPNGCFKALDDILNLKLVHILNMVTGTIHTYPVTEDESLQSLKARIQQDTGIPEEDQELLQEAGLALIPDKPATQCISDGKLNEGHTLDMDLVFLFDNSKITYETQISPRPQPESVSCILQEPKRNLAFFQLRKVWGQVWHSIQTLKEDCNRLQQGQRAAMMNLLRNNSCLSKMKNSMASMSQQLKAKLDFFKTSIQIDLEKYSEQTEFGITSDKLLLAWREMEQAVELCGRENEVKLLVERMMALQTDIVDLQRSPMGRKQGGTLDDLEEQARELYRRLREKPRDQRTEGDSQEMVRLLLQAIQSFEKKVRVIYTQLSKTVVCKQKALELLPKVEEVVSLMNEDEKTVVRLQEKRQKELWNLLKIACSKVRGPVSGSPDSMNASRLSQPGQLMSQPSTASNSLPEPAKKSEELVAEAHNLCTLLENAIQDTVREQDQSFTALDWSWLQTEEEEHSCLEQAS

[2] = target: kinases (KINOMEscan panel) (Homo sapiens, UniProt O60331); conditions: PIP5K1C; NEW KINOMEscan
[3] = target: kinases (KINOMEscan panel) (Homo sapiens, UniProt O60674); conditions: JAK2(JH1domain-catalytic); NEW KINOMEscan
Chain of kinases (KINOMEscan panel) (Homo sapiens, UniProt O60674) (O60674 whole entry): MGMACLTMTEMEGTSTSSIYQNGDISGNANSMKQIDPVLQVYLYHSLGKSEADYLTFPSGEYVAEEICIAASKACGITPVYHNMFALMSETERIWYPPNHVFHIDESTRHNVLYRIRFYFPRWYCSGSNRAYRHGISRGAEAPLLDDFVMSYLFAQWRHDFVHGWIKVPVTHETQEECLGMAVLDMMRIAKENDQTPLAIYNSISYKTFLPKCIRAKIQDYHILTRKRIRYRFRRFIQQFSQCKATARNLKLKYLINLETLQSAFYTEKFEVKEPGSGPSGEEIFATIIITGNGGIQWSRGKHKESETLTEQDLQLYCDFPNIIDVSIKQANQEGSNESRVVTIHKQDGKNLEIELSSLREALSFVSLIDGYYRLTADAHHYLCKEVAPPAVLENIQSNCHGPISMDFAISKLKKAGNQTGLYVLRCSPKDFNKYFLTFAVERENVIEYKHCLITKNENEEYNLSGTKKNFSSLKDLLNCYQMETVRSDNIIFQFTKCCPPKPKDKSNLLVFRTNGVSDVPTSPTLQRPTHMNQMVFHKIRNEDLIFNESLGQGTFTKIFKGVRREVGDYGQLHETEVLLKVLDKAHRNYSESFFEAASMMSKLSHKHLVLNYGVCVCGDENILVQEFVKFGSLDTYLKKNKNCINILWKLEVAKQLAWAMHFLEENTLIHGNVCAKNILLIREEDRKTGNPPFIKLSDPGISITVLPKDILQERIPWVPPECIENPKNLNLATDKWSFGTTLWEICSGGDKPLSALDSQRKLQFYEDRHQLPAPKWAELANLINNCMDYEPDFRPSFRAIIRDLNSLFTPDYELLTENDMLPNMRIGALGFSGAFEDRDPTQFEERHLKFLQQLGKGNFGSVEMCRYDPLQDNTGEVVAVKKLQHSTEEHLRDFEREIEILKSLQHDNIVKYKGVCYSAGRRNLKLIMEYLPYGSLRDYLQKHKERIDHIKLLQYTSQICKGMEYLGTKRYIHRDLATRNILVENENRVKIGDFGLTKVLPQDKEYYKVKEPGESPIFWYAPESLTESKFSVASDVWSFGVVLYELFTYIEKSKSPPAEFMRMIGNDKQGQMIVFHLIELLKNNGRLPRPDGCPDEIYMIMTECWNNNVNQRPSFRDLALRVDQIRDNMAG

[4] = target: kinases (KINOMEscan panel) (Homo sapiens, UniProt P21860); conditions: ERBB3; NEW KINOMEscan
Chain of kinases (KINOMEscan panel) (Homo sapiens, UniProt P21860) (P21860 20-1342): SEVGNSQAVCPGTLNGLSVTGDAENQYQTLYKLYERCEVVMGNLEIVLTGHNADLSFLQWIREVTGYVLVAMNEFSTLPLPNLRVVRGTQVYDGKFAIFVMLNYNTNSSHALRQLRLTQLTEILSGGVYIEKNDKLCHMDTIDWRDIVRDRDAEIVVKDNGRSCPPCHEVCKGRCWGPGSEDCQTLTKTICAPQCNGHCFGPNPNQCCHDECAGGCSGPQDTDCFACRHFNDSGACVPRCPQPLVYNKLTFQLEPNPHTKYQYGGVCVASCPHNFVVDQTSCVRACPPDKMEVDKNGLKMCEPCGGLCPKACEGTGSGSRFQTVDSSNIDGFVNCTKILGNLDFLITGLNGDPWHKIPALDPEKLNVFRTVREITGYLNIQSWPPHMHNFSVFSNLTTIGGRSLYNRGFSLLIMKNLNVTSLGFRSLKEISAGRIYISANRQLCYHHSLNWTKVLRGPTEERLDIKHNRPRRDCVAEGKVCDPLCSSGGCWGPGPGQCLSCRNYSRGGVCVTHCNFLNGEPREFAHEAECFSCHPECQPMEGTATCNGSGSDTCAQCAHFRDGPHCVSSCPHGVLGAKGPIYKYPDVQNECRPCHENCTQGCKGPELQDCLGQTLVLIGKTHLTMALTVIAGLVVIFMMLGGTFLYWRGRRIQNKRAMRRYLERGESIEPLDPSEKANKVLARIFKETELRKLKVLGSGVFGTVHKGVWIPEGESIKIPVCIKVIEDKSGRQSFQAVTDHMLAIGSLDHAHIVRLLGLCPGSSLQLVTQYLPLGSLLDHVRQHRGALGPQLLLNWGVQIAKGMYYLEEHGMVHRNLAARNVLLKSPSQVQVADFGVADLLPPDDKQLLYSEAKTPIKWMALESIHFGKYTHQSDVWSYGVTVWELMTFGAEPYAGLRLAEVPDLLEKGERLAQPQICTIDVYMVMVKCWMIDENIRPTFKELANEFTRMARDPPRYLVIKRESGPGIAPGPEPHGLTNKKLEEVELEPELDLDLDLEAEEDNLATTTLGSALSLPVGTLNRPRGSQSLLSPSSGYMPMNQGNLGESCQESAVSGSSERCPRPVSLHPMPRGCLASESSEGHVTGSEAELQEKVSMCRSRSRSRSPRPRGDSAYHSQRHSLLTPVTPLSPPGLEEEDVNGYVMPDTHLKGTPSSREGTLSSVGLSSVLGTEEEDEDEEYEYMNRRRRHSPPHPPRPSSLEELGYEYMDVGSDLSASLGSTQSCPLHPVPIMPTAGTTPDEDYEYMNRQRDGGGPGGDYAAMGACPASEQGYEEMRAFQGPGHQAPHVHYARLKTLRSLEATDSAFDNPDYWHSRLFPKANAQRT

[5] = target: kinases (KINOMEscan panel) (Homo sapiens, UniProt P37023); conditions: ACVRL1; NEW KINOMEscan
Chain of kinases (KINOMEscan panel) (Homo sapiens, UniProt P37023) (P37023 22-503): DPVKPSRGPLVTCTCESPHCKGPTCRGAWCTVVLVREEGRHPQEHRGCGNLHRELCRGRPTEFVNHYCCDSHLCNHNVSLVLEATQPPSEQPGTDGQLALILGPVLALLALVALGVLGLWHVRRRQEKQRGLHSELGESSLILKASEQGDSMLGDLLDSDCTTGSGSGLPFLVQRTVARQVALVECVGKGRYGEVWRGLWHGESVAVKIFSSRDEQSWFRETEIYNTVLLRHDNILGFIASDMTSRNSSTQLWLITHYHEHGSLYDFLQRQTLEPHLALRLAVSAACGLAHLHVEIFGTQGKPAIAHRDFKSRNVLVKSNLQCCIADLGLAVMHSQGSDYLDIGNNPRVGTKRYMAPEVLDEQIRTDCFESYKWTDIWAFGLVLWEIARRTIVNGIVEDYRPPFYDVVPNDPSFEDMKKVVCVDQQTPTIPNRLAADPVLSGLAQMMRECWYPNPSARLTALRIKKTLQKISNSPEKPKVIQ

[6] = target: T2, kinases (KINOMEscan panel) (Homo sapiens, UniProt P42680); conditions: kinase TEC; NEW KINOMEscan
T2 sequence (P42680 1-631): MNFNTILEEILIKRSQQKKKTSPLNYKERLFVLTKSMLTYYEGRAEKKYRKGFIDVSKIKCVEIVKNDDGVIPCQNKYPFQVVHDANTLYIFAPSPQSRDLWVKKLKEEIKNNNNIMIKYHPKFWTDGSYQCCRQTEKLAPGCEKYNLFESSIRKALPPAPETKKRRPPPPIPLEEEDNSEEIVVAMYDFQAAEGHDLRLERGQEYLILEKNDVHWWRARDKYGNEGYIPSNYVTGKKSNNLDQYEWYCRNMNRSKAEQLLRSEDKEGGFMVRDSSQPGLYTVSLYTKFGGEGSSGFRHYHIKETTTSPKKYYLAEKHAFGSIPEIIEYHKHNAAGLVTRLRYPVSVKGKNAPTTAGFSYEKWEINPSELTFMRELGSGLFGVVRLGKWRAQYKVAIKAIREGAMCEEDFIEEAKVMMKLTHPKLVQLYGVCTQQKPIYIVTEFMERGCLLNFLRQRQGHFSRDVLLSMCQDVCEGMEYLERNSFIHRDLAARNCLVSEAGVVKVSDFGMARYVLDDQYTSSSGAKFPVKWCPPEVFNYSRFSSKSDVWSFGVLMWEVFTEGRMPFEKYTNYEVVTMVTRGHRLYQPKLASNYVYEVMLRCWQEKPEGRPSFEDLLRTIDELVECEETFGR

[7] = target: T3, kinases (KINOMEscan panel) (Homo sapiens, UniProt Q92630); conditions: DYRK2; NEW KINOMEscan
T3 sequence (Q92630 1-601): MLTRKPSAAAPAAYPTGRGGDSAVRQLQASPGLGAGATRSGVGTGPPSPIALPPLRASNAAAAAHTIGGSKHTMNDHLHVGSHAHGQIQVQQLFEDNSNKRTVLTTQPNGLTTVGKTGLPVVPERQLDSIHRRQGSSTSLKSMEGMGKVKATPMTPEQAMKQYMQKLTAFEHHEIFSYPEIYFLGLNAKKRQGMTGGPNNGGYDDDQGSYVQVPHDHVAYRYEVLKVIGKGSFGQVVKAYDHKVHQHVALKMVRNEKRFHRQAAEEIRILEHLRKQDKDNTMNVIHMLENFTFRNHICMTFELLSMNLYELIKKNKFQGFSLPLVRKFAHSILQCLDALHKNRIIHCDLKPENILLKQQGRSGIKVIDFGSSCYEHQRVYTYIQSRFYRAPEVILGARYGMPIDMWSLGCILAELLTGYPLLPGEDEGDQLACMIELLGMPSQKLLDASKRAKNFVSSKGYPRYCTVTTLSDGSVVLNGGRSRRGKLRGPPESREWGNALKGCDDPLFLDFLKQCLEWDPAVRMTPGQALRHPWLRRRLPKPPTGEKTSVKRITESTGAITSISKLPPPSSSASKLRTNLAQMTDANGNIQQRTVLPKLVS

[8] = target: T4, kinases (KINOMEscan panel) (Homo sapiens, UniProt Q9BXA7); conditions: kinase TSSK1B; NEW KINOMEscan
T4 sequence (Q9BXA7 1-367): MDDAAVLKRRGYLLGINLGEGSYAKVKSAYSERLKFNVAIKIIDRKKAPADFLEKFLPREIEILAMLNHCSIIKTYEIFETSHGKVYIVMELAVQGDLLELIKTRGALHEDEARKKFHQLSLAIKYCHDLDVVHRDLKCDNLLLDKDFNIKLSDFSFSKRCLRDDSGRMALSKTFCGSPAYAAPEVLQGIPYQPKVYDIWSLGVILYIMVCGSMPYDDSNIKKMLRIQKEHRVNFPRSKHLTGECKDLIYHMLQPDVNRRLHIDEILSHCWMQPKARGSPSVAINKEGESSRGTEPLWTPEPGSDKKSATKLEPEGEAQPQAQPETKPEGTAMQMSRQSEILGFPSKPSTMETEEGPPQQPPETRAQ

[9] = target: kinases (KINOMEscan panel) (Homo sapiens, UniProt Q9UM73); conditions: kinase ALK; NEW KINOMEscan
Chain of kinases (KINOMEscan panel) (Homo sapiens, UniProt Q9UM73) (Q9UM73 19-1620): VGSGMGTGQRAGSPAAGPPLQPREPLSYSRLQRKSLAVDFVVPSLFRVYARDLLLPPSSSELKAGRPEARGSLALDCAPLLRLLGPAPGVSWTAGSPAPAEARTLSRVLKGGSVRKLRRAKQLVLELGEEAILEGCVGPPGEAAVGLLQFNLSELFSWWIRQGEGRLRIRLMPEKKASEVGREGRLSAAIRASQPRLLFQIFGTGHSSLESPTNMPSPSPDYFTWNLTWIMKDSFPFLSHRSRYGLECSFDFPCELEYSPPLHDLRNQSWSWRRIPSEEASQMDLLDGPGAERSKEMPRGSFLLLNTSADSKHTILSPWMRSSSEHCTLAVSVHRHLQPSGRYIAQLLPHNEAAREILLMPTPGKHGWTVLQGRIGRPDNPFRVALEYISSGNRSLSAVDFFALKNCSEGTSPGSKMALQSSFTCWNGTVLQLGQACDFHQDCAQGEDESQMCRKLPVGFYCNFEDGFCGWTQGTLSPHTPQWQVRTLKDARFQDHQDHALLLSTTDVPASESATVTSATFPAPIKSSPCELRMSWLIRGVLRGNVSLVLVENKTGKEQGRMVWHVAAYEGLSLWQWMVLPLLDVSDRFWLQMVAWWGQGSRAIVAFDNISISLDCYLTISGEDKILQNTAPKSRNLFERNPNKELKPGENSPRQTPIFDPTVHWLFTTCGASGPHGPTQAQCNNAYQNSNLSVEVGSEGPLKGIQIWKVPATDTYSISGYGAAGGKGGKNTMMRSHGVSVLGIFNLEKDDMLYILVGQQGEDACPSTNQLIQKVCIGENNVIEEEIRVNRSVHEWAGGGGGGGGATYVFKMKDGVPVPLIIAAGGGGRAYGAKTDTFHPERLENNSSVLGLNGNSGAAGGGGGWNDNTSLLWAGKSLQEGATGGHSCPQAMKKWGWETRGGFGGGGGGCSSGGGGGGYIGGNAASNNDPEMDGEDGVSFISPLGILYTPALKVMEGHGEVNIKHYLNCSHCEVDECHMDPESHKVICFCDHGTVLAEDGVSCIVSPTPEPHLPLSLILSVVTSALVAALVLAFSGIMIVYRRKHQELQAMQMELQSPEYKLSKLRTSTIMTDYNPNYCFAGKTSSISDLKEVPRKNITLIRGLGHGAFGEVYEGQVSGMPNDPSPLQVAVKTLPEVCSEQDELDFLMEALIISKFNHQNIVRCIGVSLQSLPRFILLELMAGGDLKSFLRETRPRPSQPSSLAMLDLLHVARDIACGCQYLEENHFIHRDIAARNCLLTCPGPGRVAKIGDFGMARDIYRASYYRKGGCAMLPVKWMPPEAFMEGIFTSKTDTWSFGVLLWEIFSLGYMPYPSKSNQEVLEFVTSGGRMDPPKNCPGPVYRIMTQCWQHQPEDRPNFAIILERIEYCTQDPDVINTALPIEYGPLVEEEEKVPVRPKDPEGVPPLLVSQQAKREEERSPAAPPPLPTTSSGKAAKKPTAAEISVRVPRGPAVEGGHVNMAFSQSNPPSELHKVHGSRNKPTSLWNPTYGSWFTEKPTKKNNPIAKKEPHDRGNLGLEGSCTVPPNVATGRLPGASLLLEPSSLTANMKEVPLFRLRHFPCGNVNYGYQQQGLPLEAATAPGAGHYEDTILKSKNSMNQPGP

Row | Compound | KINOMEscan IKBKB/IKK-beta [1] | KINOMEscan PIP5K1C [2] | KINOMEscan JAK2(JH1domain-catalytic) [3] | KINOMEscan ERBB3 [4] | KINOMEscan ACVRL1 [5] | KINOMEscan TEC [6] | KINOMEscan DYRK2 [7] | KINOMEscan TSSK1B [8] | KINOMEscan ALK [9]
1 | Cc1cccc(-c2nc(Nc3ccc4nn(C)cc4c3)c3ccccc3n2)n1 [NK167] | 5 | 18 | 0 | 0 | 4 | 0 | 0 | 15 | 22
2 | Cc1cccc(-c2nc(N(C)c3ccc4ncsc4c3)c3ccccc3n2)n1 [NK-161] | 25 | 1 | 0 | 11 | 9 | 0 | 12 | 11 | 9
